{"source": "patent US10123996B2", "about": "“Macrocyclic lactone compounds and methods for their use” (Elixir Medical Corporation, priority 2006, dated 2018)", "assay_type_in_all_cases": "cell-based", "key": {"[1]": {"tested_on": "human smooth muscle cells", "test": "in vitro human smooth muscle cell culture testing, incorporated thymidine (proliferation)", "conditions": "for % Proliferation After One Hr Exposure: 1 hr exposure; for % Proliferation After Three Hr Exposure: 3 hr exposure; for % Proliferation After Eight Hr Exposure: 8 hr exposure; for IC50: Homo sapiens", "procedure": "The amounts of incorporated thymidine for samples of Compound AR of varying concentrations (0.005, 0.01, 0.05, 0.1, 0.5, and 1 μM) and of rapamycin of varying concentrations (0.0005, 0.001, 0.01, and 0.1 μM) were measured after exposure for different times of 1, 3 and 8 hours. The IC50 for Compound AR and rapamycin were approximately 0.05 and 0.01 μM, respectively, after smooth muscle cells were exposed to Compound AR and rapamycin for the shorter periods of 1 and 3 hours (as shown in Table 1 and FIG. 8). The IC50 of Compound AR and rapamycin was approximately 0.005 and 0.001 μM, respectively, after smooth muscle cells were exposure to Compound AR and rapamycin for 8 hours. The IC50 of Compound AR was approximately five times higher than that of rapamycin.\nThe amounts of incorporated thymidine for samples of 17, 18-29, 30-bis-epoxide macrocyclic lactone of varying concentrations (0.005, 0.01, 0.05, 0.1, 0.5, and 1 μM) and of Compound AR of varying concentrations (0.0005, 0.001, 0.01, and 0.1 μM) were measured after exposure for 8 hours. The IC50 of 17, 18-29, 30-bis-epoxide macrocyclic lactone and Compound AR was approximately 0.1 and 0.005 μM, respectively, after smooth muscle cells were exposed to 17, 18-29, 30-bis-epoxide macrocyclic lactone and Compound AR for 8 hours (FIG. 13). The IC50 of 17, 18-29, 30-bis-epoxide macrocyclic lactone was approximately 20 times higher than that of Compound AR."}, "[2]": {"tested_on": "MMP-9 released by activated macrophages", "test": "cytokine inhibition in LPS-activated macrophages, ELISA: MMP-9", "conditions": "10 nM", "procedure": "(§1) In cell culture studies, macrophages were activated to secrete cytokines such as 11-6, MMP-9, MCP-1 and IL-10 by treating the cells to E Coli lippopolysaccharide (LPS). Inhibition of these cytokines upon treatment of the activated macrophages with Compound AR and rapamycin with 10 nM concentration was tested using ELISA assay. The inhibition of pro-inflammatory and cell proliferation and migration inducing cytokines upon exposure to the macrocyclic lactone is presented in FIG. 12A. The inhibition of anti-inflammatory cytokine IL-10 upon exposure to macrocyclic lactone Compound AR and Sirolimus are presented in FIG. 12B."}, "[3]": {"tested_on": "MCP-1 released by activated macrophages", "test": "cytokine inhibition in LPS-activated macrophages, ELISA: MCP-1", "conditions": "10 nM", "procedure": "as §1"}, "[4]": {"tested_on": "IL-10 released by activated macrophages", "test": "cytokine inhibition in LPS-activated macrophages, ELISA: IL-10", "conditions": "10 nM", "procedure": "as §1"}, "[5]": {"tested_on": "IL-6 released by activated macrophages", "test": "cytokine inhibition in LPS-activated macrophages, ELISA: IL-6", "conditions": "10 nM", "procedure": "as §1"}}}
{"smiles": "CO[C@@H]1C[C@H](C[C@@H](C)[C@@H]2CC(=O)[C@H](C)/C=C(\\C)[C@@H](O)[C@@H](OC)C(=O)[C@H](C)C[C@H](C)/C=C/C=C/C=C(\\C)C(O)C[C@@H]3CC[C@@H](C)C(O)(O3)C(=O)C(=O)N3CCCC[C@H]3C(=O)O2)CC[C@H]1O", "note": "(stereo partly drawn) [Compound AR, 16-O-Demethyl Macrocyclic Lactone]", "values": [{"measurement": "% Proliferation After One Hr Exposure", "setting": "[1]; 0.005 micromolar", "result": 84, "unit": "%"}, {"measurement": "% Proliferation After Three Hr Exposure", "setting": "[1]; 0.005 micromolar", "result": 69, "unit": "%"}, {"measurement": "% Proliferation After Eight Hr Exposure", "setting": "[1]; 0.005 micromolar", "result": 52, "unit": "%"}, {"measurement": "% Proliferation After One Hr Exposure", "setting": "[1]; 0.01 micromolar", "result": 66, "unit": "%"}, {"measurement": "% Proliferation After Three Hr Exposure", "setting": "[1]; 0.01 micromolar", "result": 56, "unit": "%"}, {"measurement": "% Proliferation After Eight Hr Exposure", "setting": "[1]; 0.01 micromolar", "result": 38, "unit": "%"}, {"measurement": "% Proliferation After One Hr Exposure", "setting": "[1]; 0.05 micromolar", "result": 54, "unit": "%"}, {"measurement": "% Proliferation After Three Hr Exposure", "setting": "[1]; 0.05 micromolar", "result": 50, "unit": "%"}, {"measurement": "% Proliferation After Eight Hr Exposure", "setting": "[1]; 0.05 micromolar", "result": 40, "unit": "%"}, {"measurement": "% Proliferation After One Hr Exposure", "setting": "[1]; 0.1 micromolar", "result": 55, "unit": "%"}, {"measurement": "% Proliferation After Three Hr Exposure", "setting": "[1]; 0.1 micromolar", "result": 52, "unit": "%"}, {"measurement": "% Proliferation After Eight Hr Exposure", "setting": "[1]; 0.1 micromolar", "result": 36, "unit": "%"}, {"measurement": "% Proliferation After One Hr Exposure", "setting": "[1]; 0.5 micromolar", "result": 57, "unit": "%"}, {"measurement": "% Proliferation After Three Hr Exposure", "setting": "[1]; 0.5 micromolar", "result": 48, "unit": "%"}, {"measurement": "% Proliferation After Eight Hr Exposure", "setting": "[1]; 0.5 micromolar", "result": 35, "unit": "%"}, {"measurement": "IC50", "setting": "[1]; smooth muscle cells exposed for 8 hours", "result": "~0.005", "unit": "µM"}, {"measurement": "IC50", "setting": "[1]; smooth muscle cells exposed for the shorter periods of 1 and 3 hours", "result": "~0.05", "unit": "µM"}, {"measurement": "production of MMP-9", "setting": "[2]", "result": "significantly reduced the production"}, {"measurement": "production of MCP-1", "setting": "[3]", "result": "significantly reduced the production"}, {"measurement": "production of anti-inflammatory cytokine IL-10", "setting": "[4]", "result": "inhibit the production"}, {"measurement": "inhibition of release of IL-6", "setting": "[5]", "result": "did not show and significant inhibition"}]}
